Results as given in patent publication US10392383B2, “3-(1H-benzo[d]imidazol-2-yl)-1H-pyrazolo[4,3-b]pyridines and therapeutic uses thereof” (Samumed, LLC, priority 2015, dated 2019).

System: primary human mesenchymal stem cells (hMSCs)
Assay: Induction of chondrogenesis in human mesenchymal stem cells (nodule staining with Rhodamine B / Nile Red)
Format: cell-based
Details: for Emax: TGF-β3 (10 ng/mL) as positive control, read-out: Max. Activity as % TGF-β3 activity; for EC50: concentration required to induce 50% levels of chondrogenesis vs TGF-β3, read-out: Conc (nM) of 50% TGF-β3 activity
Description: Representative compounds were screened using primary human mesenchymal stem cells (hMSCs) to determine their ability to induce chondrogenesis (process by which cartilage is developed).
Human Mesenchymal Stem Cell Culture: Primary human mesenchymal stem cells (hMSCs) were purchased from Lonza (Walkersville, Md.) and expanded in Mesenchymal Stem Cell Growth Media (Lonza). Cells between passage 3 and 6 were used for the experiments.
Compound Screening: Each compound was dissolved in DMSO as a 10 mM stock and used to prepare compound source plates. For the 96 well assay, serial dilution (1:3, 6-point dose-response curves from 2700 nM to 10 nM) and compound transfer was performed using the ECHO 550 (Labcyte, Sunnyvale, Calif.) into 96-well clear bottom assay plates (Greiner Bio-One) with appropriate DMSO backfill for a final DMSO concentration of 0.03%. hMSCs were plated at 20,000 cells/well in 250 μL/well Incomplete Chondrogenic Induction Medium (Lonza; DMEM, dexamethasone, ascorbate, insulin-transferrin-selenium [ITS supplement], gentamycin-amphotericin [GA-1000], sodium pyruvate, proline and L-glutamine). TGF-β3 (10 ng/mL) was used as a positive control for differentiation while negative control wells were treated with 75 nL DMSO for normalization and calculating EC50 values. For the 384 well assay, serial dilution (1:3, 8-point dose-response curves from 5000 nM to 2.2 nM) and compound transfer was performed using the ECHO 550 (Labcyte, Sunnyvale, Calif.) into 384-well clear bottom assay plates (Greiner Bio-One) with appropriate DMSO backfill for a final DMSO concentration of 0.03%. hMSCs were plated at 8,000 cells/well in 80 μL/well Incomplete Chondrogenic Induction Medium (Lonza; DMEM, dexamethasone, ascorbate, insulin-transferrin-selenium [ITS supplement], gentamycin-amphotericin [GA-1000], sodium pyruvate, proline and L-glutamine). TGF-β3 (10 ng/mL) was used as a positive control for differentiation while negative control wells were treated with 25 nL DMSO for normalization and calculating EC50 values. Cells were incubated at 37° C. and 5% CO2 for 6 days. To image chondrogenic nodules, the cells were fixed using 4% formaldehyde (Electron Microscopy Sciences), and stained with 2 μg/mL Rhodamine B (Sigma-Aldrich) and 20 μM Nile Red (Sigma-Aldrich) [Johnson K., et. al, A Stem Cell-Based Approach to Cartilage Repair, Science, (2012), 336(6082), 717-721]. The nodules imaged (25 images per well for 96 well plates and 9 images per well for 384 well plates at 10× magnification) by excitation at 531 nm and emission at 625 nm and quantified using the CellInsight CX5 (Thermo Scientific). Area of nodules in each well was normalized to the average of 3 DMSO treated wells on the same plate using Excel (Microsoft Inc.). The normalized averages (fold change over DMSO) of 2 or 3 replicate wells for each compound concentration were calculated. Due to solubility limitations of some of the compounds, curve fitting was incomplete leading to inaccurate EC50 determinations.
Using TGF-β3 as a positive control, the concentration of representative compounds required to induce 50% levels of chondrogenesis is reported. In addition, the maximum activity of each compound and the respective dose that each compound reached maximum chondrogenesis activity is reported.

| SMILES | EC50 | Emax |
| --- | --- | --- |
| CC(C)(C)C(=O)Nc1cncc(-c2ccc3[nH]nc(-c4nc5c(-c6ccc(Cl)s6)cccc5[nH]4)c3n2)c1 [Compound 1043, N-(5-(3-(4-(5-chlorothiophen-2-yl)-1H-benzo[d]imidazol-2-yl)-1H-pyrazolo[4,3-b]pyridin-5-yl)pyridin-3-yl)pivalamide] | 10 nM | 65% |
| CN1CCN(c2cccc3[nH]c(-c4n[nH]c5ccc(-c6cncc(N)c6)nc45)nc23)CC1 [Compound 227, 5-(3-(4-(4-Methylpiperazin-1-yl)-1H-benzo[d]imidazol-2-yl)-1H-pyrazolo [4,3-b]pyridin-5-yl)pyridin-3-amine] |  | 50% |
| CC(C)Nc1cncc(-c2ccc3[nH]nc(-c4nc5c(-c6cccnc6)cccc5[nH]4)c3n2)c1 [Compound 96, N-Isopropyl-5-(3-(4-(pyridin-3-yl)-1H-benzo[d]imidazol-2-yl)-1H-pyrazolo [4,3-b]pyridin-5-yl)pyridin-3-amine] |  | 24% |
| O=C(Cc1ccccc1)Nc1cncc(-c2ccc3[nH]nc(-c4nc5ccccc5[nH]4)c3n2)c1 [Compound 262, N-(5-(3-(1H-Benzo[d]imidazol-2-yl)-1H-pyrazolo[4,3-b]pyridin-5-yl)pyridin-3-yl)-2-phenylacetamide] |  | 37% |
| Cc1ccncc1-c1ccc2[nH]nc(-c3nc4c(-c5ccncc5)cccc4[nH]3)c2n1 [Compound 117, 5-(4-Methylpyridin-3-yl)-3-(4-(pyridin-4-yl)-1H-benzo[d]imidazol-2-yl)-1H-pyrazolo[4,3-b]pyridine] |  | 45% |

Second part, led by results:

| EC50 | SMILES | Emax |
| --- | --- | --- |
| 30 nM | CC(C)C(=O)Nc1cncc(-c2ccc3[nH]nc(-c4nc5c(N6CCN(C)CC6)cccc5[nH]4)c3n2)c1 [Compound 233, N-(5-(3-(4-(4-Methylpiperazin-1-yl)-1H-benzo[d]imidazol-2-yl)-1H-pyrazolo[4,3-b]pyridin-5-yl)pyridin-3-yl)isobutyramide] | 52% |
| 30 nM | O=C(Nc1cncc(-c2ccc3[nH]nc(-c4nc5c(-c6ccc(F)cc6)cccc5[nH]4)c3n2)c1)C1CCC1 [Compound 49, N-(5-(3-(4-(4-Fluorophenyl)-1H-benzo[d]imidazol-2-yl)-1H-pyrazolo[4,3-b]pyridin-5-yl)pyridin-3-yl)cyclobutanecarboxamide] | 69% |
| 10 nM | CN(C)Cc1cncc(-c2ccc3[nH]nc(-c4nc5c(N6CCCCC6)cccc5[nH]4)c3n2)c1 [Compound 181, N,N-dimethyl-1-(5-(3-(4-(piperidin-1-yl)-1H-benzo[d]imidazol-2-yl)-1H-pyrazolo[4,3-b]pyridin-5-yl)pyridin-3-yl)methanamine] | 52% |
